According to the NIST ThermoML archive (doi:10.1016/j.jct.2013.08.012):
Numbers after ± are expanded uncertainties.

Assay: molar enthalpy of vaporization or sublimation
Conditions: 298.15 K; Crystal; Static calorimetry

| molar enthalpy [kcal/mol] | SMILES |
| --- | --- |
| 18.8 ± 0.406 | O=C1Cc2ccccc2O1 [2-coumaranone] |
| 20.5 ± 0.406 | O=C1COc2ccccc21 [3-coumaranone] |
